In patent US20050282743A1, “Molecular interactions in cells” (Arbor Vita Corporation, priority 2001, published 2005):
Ends that are not written are not given here. Peptide text beside a SMILES is read from it. * marks the point of attachment. Biotin = O=C1N[C@H]2[C@H](CS[C@H]2CCCCC(=O)*)N1

How the values were obtained:
Type in all cases: binding
[1] = biological target: T1, PDZ protein (GST-PDZ fusion) (Homo sapiens, UniProt Q13796); assay: G' assay (10 uM PL peptide), results of TABLE 7 and TABLE 12; settings: PDZ hAPXL, PDZ Domain 1
T1 construct: made in house; host or cells: E. coli (DH5alpha, BL21 or JM109)
Procedure, shortened: (§1)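 Biotinylated PL peptides at 10 uM (vs 20 uM in G^0 assay) bound to GST-PDZ fusions; PDZ protein at 5 ug/ml unless another concentration listed. Bound peptide read as A450 nm, classified 0–5 (0 = A450 0; 5 = A450 >4 repeated).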

[2] = biological target: T2, PDZ protein (GST-PDZ fusion) (Homo sapiens, UniProt Q13424); assay: as above; settings: PDZ Synt. 1 alpha, PDZ Domain 1
T2 construct: made in house; host or cells: E. coli (DH5alpha, BL21 or JM109)
T2 sequence (Q13424 1-505): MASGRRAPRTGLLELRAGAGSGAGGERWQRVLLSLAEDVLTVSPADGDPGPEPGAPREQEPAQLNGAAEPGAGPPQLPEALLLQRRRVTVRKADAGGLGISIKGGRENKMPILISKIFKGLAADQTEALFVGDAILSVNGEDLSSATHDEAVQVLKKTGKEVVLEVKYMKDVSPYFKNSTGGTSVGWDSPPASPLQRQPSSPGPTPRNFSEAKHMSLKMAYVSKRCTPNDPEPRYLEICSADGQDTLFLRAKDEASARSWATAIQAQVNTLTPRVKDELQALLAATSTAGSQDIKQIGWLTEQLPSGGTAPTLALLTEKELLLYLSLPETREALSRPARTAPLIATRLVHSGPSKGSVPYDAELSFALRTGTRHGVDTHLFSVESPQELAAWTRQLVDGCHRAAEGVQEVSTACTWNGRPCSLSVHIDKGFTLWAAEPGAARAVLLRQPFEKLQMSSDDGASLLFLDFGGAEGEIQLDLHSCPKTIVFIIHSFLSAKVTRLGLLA
Procedure, shortened: as §1

[3] = test system: PDZ protein (GST-PDZ fusion); assay: as above; settings: PDZ SHANK, PDZ Domain 1
Procedure, shortened: as §1

[4] = biological target: T3, PDZ protein (GST-PDZ fusion) (Homo sapiens, UniProt Q6P0Q8); assay: as above
T3 construct: made in house; host or cells: E. coli (DH5alpha, BL21 or JM109)
Procedure, shortened: as §1

[5] = biological target: T4, PDZ protein (GST-PDZ fusion) (Homo sapiens, UniProt Q5T2W1); assay: as above; settings: PDZ PDZK1, PDZ Domain 2, 3, 4
T4 construct: made in house; host or cells: E. coli (DH5alpha, BL21 or JM109)
T4 sequence (Q5T2W1 1-519): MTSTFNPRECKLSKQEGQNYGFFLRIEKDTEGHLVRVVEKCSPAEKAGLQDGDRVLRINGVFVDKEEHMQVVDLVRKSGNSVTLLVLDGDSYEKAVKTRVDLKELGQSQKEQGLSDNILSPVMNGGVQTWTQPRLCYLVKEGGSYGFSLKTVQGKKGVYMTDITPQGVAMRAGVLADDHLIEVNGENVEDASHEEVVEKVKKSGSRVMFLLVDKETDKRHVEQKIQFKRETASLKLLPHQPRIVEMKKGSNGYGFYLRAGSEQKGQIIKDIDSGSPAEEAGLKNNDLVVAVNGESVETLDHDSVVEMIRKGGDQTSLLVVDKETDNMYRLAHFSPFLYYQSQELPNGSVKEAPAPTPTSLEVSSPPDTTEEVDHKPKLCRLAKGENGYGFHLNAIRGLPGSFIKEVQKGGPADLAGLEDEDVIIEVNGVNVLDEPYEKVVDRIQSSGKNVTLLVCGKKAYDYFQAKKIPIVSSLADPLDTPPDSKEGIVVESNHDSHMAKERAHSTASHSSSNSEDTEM
Procedure, shortened: as §1

[6] = biological target: T5, PDZ protein (GST-PDZ fusion) (Homo sapiens, UniProt P57105); assay: as above; settings: PDZ Outer Membrane, PDZ Domain 1
T5 construct: made in house; host or cells: E. coli (DH5alpha, BL21 or JM109)
T5 sequence (P57105 1-145): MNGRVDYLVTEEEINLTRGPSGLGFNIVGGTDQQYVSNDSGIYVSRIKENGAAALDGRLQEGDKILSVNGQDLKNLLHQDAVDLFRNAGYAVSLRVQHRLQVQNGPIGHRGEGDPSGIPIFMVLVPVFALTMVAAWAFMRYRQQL
Procedure, shortened: as §1

[7] = biological target: T6, PDZ protein (GST-PDZ fusion) (Homo sapiens, UniProt Q9P202); assay: as above; settings: PDZ KIAA1526, PDZ Domain 1
T6 construct: made in house; host or cells: E. coli (DH5alpha, BL21 or JM109)
T6 sequence (Q9P202 1-907): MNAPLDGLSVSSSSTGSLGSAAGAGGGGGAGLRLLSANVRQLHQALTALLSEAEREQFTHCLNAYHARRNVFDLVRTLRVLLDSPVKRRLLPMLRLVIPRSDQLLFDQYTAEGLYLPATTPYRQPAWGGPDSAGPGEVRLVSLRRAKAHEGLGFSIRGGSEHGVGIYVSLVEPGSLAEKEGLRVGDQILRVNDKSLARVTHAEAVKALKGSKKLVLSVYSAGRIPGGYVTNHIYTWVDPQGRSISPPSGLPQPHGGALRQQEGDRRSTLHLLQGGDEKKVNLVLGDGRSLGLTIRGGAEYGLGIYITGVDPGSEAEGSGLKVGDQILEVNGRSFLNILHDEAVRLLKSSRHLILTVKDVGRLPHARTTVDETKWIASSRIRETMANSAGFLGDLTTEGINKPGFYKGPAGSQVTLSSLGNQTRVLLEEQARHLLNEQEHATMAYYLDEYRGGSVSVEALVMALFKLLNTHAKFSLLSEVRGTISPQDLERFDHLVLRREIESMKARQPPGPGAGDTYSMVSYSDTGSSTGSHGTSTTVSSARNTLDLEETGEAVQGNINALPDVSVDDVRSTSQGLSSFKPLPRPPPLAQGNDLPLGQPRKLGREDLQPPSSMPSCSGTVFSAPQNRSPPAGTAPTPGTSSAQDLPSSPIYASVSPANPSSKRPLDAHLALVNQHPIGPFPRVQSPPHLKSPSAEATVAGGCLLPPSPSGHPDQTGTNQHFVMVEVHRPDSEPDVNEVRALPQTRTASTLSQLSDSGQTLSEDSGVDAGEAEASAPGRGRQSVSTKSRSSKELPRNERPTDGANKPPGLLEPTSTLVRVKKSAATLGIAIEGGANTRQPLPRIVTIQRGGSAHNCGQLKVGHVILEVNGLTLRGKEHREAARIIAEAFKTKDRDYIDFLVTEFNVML
Procedure, shortened: as §1

[8] = biological target: T7, PDZ-domain polypeptide (GST/PDZ fusion protein) (Homo sapiens, UniProt Q6P0Q8); assay: Apparent affinity (Kd) by titration of PL peptide in the G assay; settings: PDZ KIAA0807(S), PDZ Domain 1; titration of the PL peptide; read-out: Peptide Optimal Conc (Kd, dissociation constant)
T7 construct: made in house; host or cells: E. coli (DH5alpha, BL21 or JM109)
Experimental: The third column labeled “Peptide Optimal Concentration” in the tables is a number reflective of the binding interaction between the PL protein and PDZ protein. […] The column labeled “Protein Optimal Concentration” refers to the protein concentration used to assay PL interaction (in ug/ml); a ‘0’ is indicative of 5 ug/ml protein concentration; any other value represents the concentration (in ug/ml) used to determine the dissociation constant for a given interaction.
The “A” and “G” assays described supra can be used to determine the “apparent affinity” of binding of a PDZ ligand peptide to a PDZ-domain polypeptide. Apparent affinity is determined based on the concentration of one molecule required to saturate the binding of a second molecule (e.g., the binding of a ligand to a receptor). Two particularly useful approaches for quantitation of apparent affinity of PDZ-ligand binding are provided infra.
In cases where satisfying the above criteria proves difficult, an alternative approach (infra) can be used.
(1) A fixed concentration of a PDZ-domain polypeptide and increasing concentrations of a labeled PL peptide (labeled with, for example, biotin or fluorescein, see TABLE 9 for representative peptide amino acid sequences) are mixed together in solution and allowed to react. In certain assays, peptide concentrations are 0.1 uM, 1 uM, 10 uM, 100 uM, 1 mM. In other assays, appropriate reaction times can range from 10 minutes to 2 days at temperatures ranging from 4° C. to 37° C. In some instances, the identical reaction can also be carried out using a non-PDZ domain-containing protein as a control (e.g., if the PDZ-domain polypeptide is fusion protein, the fusion partner can be used).
(2) PDZ-ligand complexes can be separated from unbound labeled peptide using a variety of methods known in the art.
(3) The PDZ-ligand complex is detected based on presence of the label on the peptide ligand using a variety of methods and detectors known to one of skill in the art. For example, if the label is fluorescein and the separation is achieved using HPSEC, an in-line fluorescence detector can be used. The binding can also be detected as described supra for the G assay.

T3 sequence (Q6P0Q8 whole entry, the tested form may be a part): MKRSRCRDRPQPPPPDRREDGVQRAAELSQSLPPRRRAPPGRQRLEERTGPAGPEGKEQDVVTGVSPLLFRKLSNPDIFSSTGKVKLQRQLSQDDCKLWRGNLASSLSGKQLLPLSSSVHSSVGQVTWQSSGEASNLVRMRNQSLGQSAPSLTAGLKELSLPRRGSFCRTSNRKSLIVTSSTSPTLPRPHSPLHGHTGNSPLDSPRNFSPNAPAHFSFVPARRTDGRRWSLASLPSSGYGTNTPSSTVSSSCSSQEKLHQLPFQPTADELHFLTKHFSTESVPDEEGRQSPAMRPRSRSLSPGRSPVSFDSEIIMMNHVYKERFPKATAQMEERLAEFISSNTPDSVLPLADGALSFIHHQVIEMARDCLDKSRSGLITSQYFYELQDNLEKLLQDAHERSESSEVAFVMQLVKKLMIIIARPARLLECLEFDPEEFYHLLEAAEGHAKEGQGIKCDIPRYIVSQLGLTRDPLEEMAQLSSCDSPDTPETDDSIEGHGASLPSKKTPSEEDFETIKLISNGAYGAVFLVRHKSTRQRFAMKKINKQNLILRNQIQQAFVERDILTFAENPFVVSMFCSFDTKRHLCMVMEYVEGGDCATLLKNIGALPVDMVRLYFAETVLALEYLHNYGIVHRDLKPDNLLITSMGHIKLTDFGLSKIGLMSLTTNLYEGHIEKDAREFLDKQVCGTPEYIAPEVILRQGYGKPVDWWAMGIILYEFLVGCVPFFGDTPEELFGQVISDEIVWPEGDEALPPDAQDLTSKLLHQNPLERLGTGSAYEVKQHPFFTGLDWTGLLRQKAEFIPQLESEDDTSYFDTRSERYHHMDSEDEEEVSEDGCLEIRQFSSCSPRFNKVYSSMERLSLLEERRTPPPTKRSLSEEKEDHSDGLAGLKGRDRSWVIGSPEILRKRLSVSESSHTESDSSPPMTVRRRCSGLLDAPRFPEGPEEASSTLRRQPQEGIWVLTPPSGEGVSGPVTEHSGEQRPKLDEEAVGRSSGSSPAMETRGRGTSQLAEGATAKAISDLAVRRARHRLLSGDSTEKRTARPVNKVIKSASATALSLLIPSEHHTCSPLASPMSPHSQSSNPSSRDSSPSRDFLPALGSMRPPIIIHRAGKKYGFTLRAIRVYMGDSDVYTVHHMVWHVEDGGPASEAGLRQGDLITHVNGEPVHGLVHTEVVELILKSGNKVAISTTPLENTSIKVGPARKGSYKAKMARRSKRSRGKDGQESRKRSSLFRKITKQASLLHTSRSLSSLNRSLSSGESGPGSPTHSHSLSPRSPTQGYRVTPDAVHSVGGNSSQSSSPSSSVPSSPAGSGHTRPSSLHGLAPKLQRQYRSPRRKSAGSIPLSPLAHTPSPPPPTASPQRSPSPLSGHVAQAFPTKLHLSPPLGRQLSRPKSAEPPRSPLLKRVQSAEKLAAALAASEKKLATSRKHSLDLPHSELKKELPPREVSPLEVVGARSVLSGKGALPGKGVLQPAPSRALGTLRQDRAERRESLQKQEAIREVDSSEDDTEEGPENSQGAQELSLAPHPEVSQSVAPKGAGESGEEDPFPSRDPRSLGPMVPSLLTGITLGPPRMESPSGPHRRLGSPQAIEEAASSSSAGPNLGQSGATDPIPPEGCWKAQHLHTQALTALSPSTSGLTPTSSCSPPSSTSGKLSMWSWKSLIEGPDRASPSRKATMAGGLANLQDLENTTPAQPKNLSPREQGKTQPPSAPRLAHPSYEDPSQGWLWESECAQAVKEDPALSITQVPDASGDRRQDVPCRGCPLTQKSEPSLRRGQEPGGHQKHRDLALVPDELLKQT
T7 sequence (Q6P0Q8 whole entry, the tested form may be a part): as above

Classification [1]	Classification [2]	Classification ([4]; PDZ KIAA807)	Classification ([4]; PDZ KIAA0807(S), PDZ Domain 1)	Classification [5]	Classification [6]	Classification ([4]; PDZ KIAA807, PDZ Domain not given)	Classification [7]	Kd [8] [µM]	Compound	Classification [3]
1 (A450 nm 0-1)	1 (A450 nm 0-1)	1 (A450 nm 0-1)	1 (A450 nm 0-1)	1 (A450 nm 0-1)					DAKLKSDGTIAAITEKETHF (Biotin-DAKLKSDGTIAAITEKETHF) [GABA transporter 3]	1 (A450 nm 0-1)
			4 (A450 nm 3-4)		2 (A450 nm 1-2)	3 (A450 nm 2-3)	2 (A450 nm 1-2)	4	CC[C@H](C)[C@H](NC(=O)[C@H](CO)NC(=O)[C@@H](NC(=O)CNC(=O)[C@H](CCCNC(=N)N)NC(=O)[C@H](CC(=O)O)NC(=O)[C@@H]1CCCN1C(=O)[C@H](CC(=O)O)NC(=O)[C@H](CC(N)=O)NC(=O)CNC(=O)[C@H](CC(C)C)NC(=O)[C@H](CC(N)=O)NC(=O)[C@H](CC(C)C)NC(=O)CNC(=O)[C@H](CC(C)C)NC(=O)[C@@H](NC(=O)[C@@H]1CCCN1C(=O)[C@@H](NC(=O)[C@@H]1CCCN1C(=O)[C@H](CCC(N)=O)NC(=O)CCCC[C@@H]1SC[C@@H]2NC(=O)N[C@@H]21)[C@@H](C)O)[C@@H](C)O)[C@@H](C)O)C(=O)O [GluR delta-2] (Biotin-QPTPTLGLNLGNDPDRGTSI-OH; C-terminus assumed)	
